Literature values in patent EP1677774B1, “CITICOLINE-BASED COMPOSITION IN COMBINATION WITH VITAMINS FOR THE PREVENTION AND TREATMENT OF EYE PATHOLOGIES” (Bausch & Lomb IOM S.p.A., priority 2003, dated 2005).

How the values were obtained:
[1] = system: glaucomatous patients; conditions: intramuscular administration

C[N+](C)(C)CCOP(=O)(O)OP(=O)([O-])OC[C@H]1O[C@@H](n2ccc(N)nc2=O)[C@H](O)[C@@H]1O [CDP-choline, cytidine-5'-diphosphocholine]
effect on the optic nerve (perimetric measures) ([1]; long-term clinical studies): positive effect on the damaged optic nerve | retinal and supraretinal signal conduction ([1]; short-term clinical study): functional improvement | metabolic fate after administration (intravenous or oral administration): immediately hydrolysed and converted into the two circulating metabolites cytidine and choline | calculated bioavailability for oral administration (oral compared with intravenous administration): virtually the same as the one calculated for intravenous administration
